According to US4474977A, “Amino-alcohol derivatives” (Continental Pharma S.A., priority 1977, dated 1984):
Where two headings read alike, the source gives them in different places.

Key:
[1] = system: spontaneously hypertensive rats; experiment: antihypertensive activity, oral administration to non-anesthetized spontaneously hypertensive rats, systolic arterial pressure (plethysmographic); type: in vivo, rat; conditions: for antihypertensive effect (rating): oral; for antihypertensive activity: 60 mgr/kg oral (some also at other doses), in words
Protocol: Their antihypertensive activity was tested by oral administration to non-anesthetized, spontaneously hypertensive rats, on which the systolic arterial pressure is measured at the level of the median coccygeal artery by means of a plethysmographic method (J. Roba, G. Lambelin, A. F. De Schaepdryver, Arch. int. Pharmacodyn., 200, 182, 1972). The arterial pressure was measured every 30 minutes from two hours before to three hours after oral administration of 60 mgr/kg of the tested products or of a placebo (1% tragacanth gum mucilage). When being of interest, the products were tested at other doses under similar conditions. Only rats having a systolic pressure of 180 to 220 mm Hg were used. Two rats were used for each product. The treatments were made without the knowledge of the person making the measures. The antihypertensive effects were rated as follows:
+: reduction of 10 to 20 mm Hg
++: reduction of 20 to 30 mm Hg
+++: reduction of 30 to 50 mm Hg
++++: reduction >50 mm Hg

[2] = system: femoral arterial circulation; experiment: peripheral vasodilator activity on anaesthetized dog, femoral arterial perfusion pressure; type: in vivo; conditions: 30 μg/kg injected in femoral perfusion (some also at other doses); in words
Protocol: The peripheral vasodilator activity of the products according to the invention was measured on anaesthetized dog at the level of the femoral arterial circulation. To this end, the femoral artery the collaterals of which were ligaturated was perfused with a constant flow rate of blood taken from aorta. Thus the perfusion pressure measured at the level of the femoral artery, varied as a function of the resistance of perfused area. The tested products and the corresponding solvents were directly injected in the system at the dose of 30 μg/kg. The blood circulation rate being maintained constant, a vasodilation was thus measured by a decrease of the perfusion pressure. The latter is rated in comparison with the action of papaverine considered as standard and injected once per group of 4 products.
When being of interest, the products were tested at other doses under the same conditions. The vasodilation activity was rated as follows:
+: 1/3 of the papaverine activity
++: 2/3 of the papaverine activity
+++: activity equal to that of papaverine (i.e. 30 to 40 mm Hg)
++++: activity higher than that of papaverine.

guinea pig ileum = experiment: antispasmodic activity against contractions of guinea pig ileum induced by histamine and acetylcholine; conditions: Cavia porcellus
Protocol: The antispasmodic activity of the products according to the invention was tested against contractions of guinea pig ileum, such as induced by histamine and acetylcholine. These tests allow to reveal an antihistaminic activity, an anticholinergic activity or a musculotropic antispasmodic activity. The response to the contracting agent (submaximum concentration)was repeated every 5 minutes before and after injection of increasing doses of the tested products (10^-8 to 10^-5 M). The various doses were added at intervals of 20 minutes or of the time necessary to the development of the maximum effect.
The percentage of inhibition under the influence of tested products was calculated and the theoretical concentration ensuring 50% inhibition was graphically determined for each experience. These values were expressed as -log IC50 (M). The standard value for papaverine was 4.50, namely an effective concentration of 30 μM.

[3] = read-out: -log IC50 (M), antispasmodic activity (converted)
[4] = read-out: effective concentration / concentration corresponding to -log IC50 (converted)
[5] = 50% inhibition of contractions, converted from -log IC50, read-out: effective concentration / concentration corresponding to -log IC50 (converted)
[6] = contractions induced by histamine and acetylcholine, 10^-8 to 10^-5 M, read-out: -log IC50 (M), antispasmodic activity (converted)

| SMILES | peripheral vasodilator activity (compared with papaverine) [2] | antihypertensive activity [1] | IC50 (guinea pig ileum; [5]) | IC50 (guinea pig ileum; [6]) | other results |
| --- | --- | --- | --- | --- | --- |
| CC(N)(Cc1ccc(O)c(O)c1)C(=O)O (stereo not drawn) [α-methyldopa, reference compound] |  |  |  |  | antihypertensive effect (rating) ([1]; 100 mgr/kg): +++ (reduction of 30 to 50 mm Hg) |
| CCCCCCCCCCCCNC(C)C(O)c1ccc(C(C)C)cc1 (stereo not shown) [Compound 82] | at least equal to that of papaverine |  |  |  |  |
| CCCCCCCCNC(C)C(OC(=O)C(C)C)c1ccc(OCCCC)cc1 (stereo not shown) [Compound 19, 1-(p-n-Butyloxyphenyl)-1-sec-butyryloxy-2-n-octylaminopropane] |  | suitable antihypertensive activity |  |  |  |
| COc1ccc(Cc2nccc3cc(OC)c(OC)cc23)cc1OC [papaverine, reference compound] |  |  |  |  | IC50 (guinea pig ileum; [3]): 3.16e-05 M; IC50 (guinea pig ileum; [4]): 3e-05 M |
| CCCCCCCCNC(C)C(OC(=O)C1CCC1)c1ccc(SC(C)C)cc1 (stereo not shown) [Compound 9] | at least equal to that of papaverine |  | < 1e-06 M | < 1e-06 M |  |
| CCCCCCNC(C)C(O)c1ccccc1 (stereo not shown) [Compound 83] | at least equal to that of papaverine |  |  |  | IC50 (guinea pig ileum; [3]): < 1e-06 M; IC50 (guinea pig ileum; [4]): < 1e-06 M |
| COC(=O)[C@H]1[C@H]2C[C@@H]3c4[nH]c5cc(OC)ccc5c4CCN3C[C@H]2C[C@@H](OC(=O)c2cc(OC)c(OC)c(OC)c2)[C@@H]1OC [reserpine, reference compound] |  |  |  |  | antihypertensive effect (rating) ([1]; 3 mgr/kg): +++ (reduction of 30 to 50 mm Hg) |
| CCCCCCCCNC(C)C(O)c1ccc(OCCCC)cc1 (stereo not shown) [Compound 91, 1-(4-butoxyphenyl)-2-n-octylamino-1-propanol] | at least equal to that of papaverine |  |  |  | IC50 (guinea pig ileum; [3]): < 1e-06 M; IC50 (guinea pig ileum; [4]): < 1e-06 M |
| CCCCCCCCNC(C)C(O)c1ccc(C(C)C)cc1 (stereo not shown) [Compound 81, 1-(4-isopropylphenyl)-2-n-octylamino-1-propanol] | at least equal to that of papaverine |  |  |  | IC50 (guinea pig ileum; [3]): < 1e-06 M; IC50 (guinea pig ileum; [4]): < 1e-06 M |
| CC(C)Sc1ccc(C(OC(=O)C(C)C)C(C)NCCCCc2ccccc2)cc1 (stereo not shown) [Compound 26] | at least equal to that of papaverine |  | < 1e-06 M | < 1e-06 M |  |
| CCCCCCNC(C)C(O)c1ccc(OCC(C)C)cc1 (stereo not shown) [Compound 79] | at least equal to that of papaverine |  |  |  |  |
| CCCCCCCCNC(C)C(OC(=O)Cc1ccccc1)c1ccc(SC(C)C)cc1 (stereo not shown) [Compound 34] |  | suitable antihypertensive activity |  |  |  |
| CCCCCCCCNC(C)C(OC(=O)CCC)c1ccc(SC(C)C)cc1.Cl (stereo not shown) [Compound 6, 1-Butyryloxy-1-(4-isopropylthiophenyl)-2-n-octylaminopropane hydrochloride] | at least equal to that of papaverine |  | < 1e-06 M | < 1e-06 M |  |
| CCCCCCCCN[C@@H](C)[C@@H](OC(=O)C1CCCCC1)c1ccc(SC(C)C)cc1 (relative stereo) [Compound 29] |  |  | < 1e-06 M | < 1e-06 M |  |
| CCCCCCCCNC(C)C(OC(=O)CCc1ccccc1)c1ccc(SC(C)C)cc1 (stereo not shown) [Compound 32] |  |  | < 1e-06 M | < 1e-06 M |  |
| CCCCCCCCNC(C)C(OC(C)=O)c1ccc(SC2CCCC2)cc1 (stereo not shown) [Compound 15] | at least equal to that of papaverine |  |  |  | IC50 (guinea pig ileum; [3]): < 1e-06 M; IC50 (guinea pig ileum; [4]): < 1e-06 M |
| CCCCCCCCNC(C)C(OC(=O)CC)c1ccc(SC(C)C)cc1 (stereo not shown) [Compound 2] |  |  | < 1e-06 M | < 1e-06 M |  |
| CCCCCCCCNC(C)C(O)c1ccc(Cl)cc1 (stereo not shown) [Compound 85] | at least equal to that of papaverine |  |  |  | IC50 (guinea pig ileum; [3]): < 1e-06 M; IC50 (guinea pig ileum; [4]): < 1e-06 M |
| CC(C)Sc1ccc(C(OC(=O)C2CCC2)C(C)NCCCCc2ccccc2)cc1 (stereo not shown) [Compound 10] |  | suitable antihypertensive activity | < 1e-06 M | < 1e-06 M |  |

| SMILES | peripheral vasodilator activity (compared with papaverine) [2] | antihypertensive activity [1] | IC50 (guinea pig ileum; [5]) | IC50 (guinea pig ileum; [6]) | other results |
| --- | --- | --- | --- | --- | --- |
| CCCCCCCCNC(C)C(OC(=O)C1CC1)c1ccc(SC(C)C)cc1 (stereo not shown) [Compound 28] |  |  | < 1e-06 M | < 1e-06 M |  |
| CC(=O)OC(c1ccc(SC(C)C)cc1)C(C)NCCCC(=O)c1ccc(F)cc1 (stereo not shown) [Compound 43] |  | suitable antihypertensive activity |  |  |  |
| CCCCCCCCCCCCNC(C)C(O)c1ccc(OC)cc1 (stereo not shown) [Compound 88] |  |  |  |  | IC50 (guinea pig ileum; [3]): < 1e-06 M; IC50 (guinea pig ileum; [4]): < 1e-06 M |
| CCCC(=O)OC(c1ccc(SC(C)C)cc1)C(C)NCCOc1ccccc1 (stereo not shown) [Compound 24] |  | suitable antihypertensive activity | < 1e-06 M | < 1e-06 M |  |
| CC(=O)OC(c1ccc(SC(C)C)cc1)C(C)NCCCCc1ccccc1 (stereo not shown) [Compound 27] | at least equal to that of papaverine | suitable antihypertensive activity |  |  | IC50 (guinea pig ileum; [3]): < 1e-06 M; IC50 (guinea pig ileum; [4]): < 1e-06 M |
| CC(C)Oc1ccc(C(O)C(C)NCCCCc2ccccc2)cc1 (stereo not shown) [Compound 94, 1-(4-Isopropoxyphenyl)-2-(4-phenylbutylamino)-1-propanol] |  | suitable antihypertensive activity |  |  |  |
| CC(C)Sc1ccc(C(OC(=O)C(C)C)C(C)NCCOc2ccccc2)cc1 (stereo not shown) [Compound 22] |  |  | < 1e-06 M | < 1e-06 M |  |
| CCCCCCCCNC(C)C(OC(C)=O)c1ccc(OC(C)C)cc1 (stereo not shown) [Compound 18, 1-acetyloxy-1-(4-isopropyloxyphenyl)-2-n.octylaminopropane] | at least equal to that of papaverine | suitable antihypertensive activity |  |  | IC50 (guinea pig ileum; [3]): < 1e-06 M; IC50 (guinea pig ileum; [4]): < 1e-06 M |
| CCCCCCCCNC(C)C(O)c1ccc(OCC(C)C)cc1 (stereo not shown) [Compound 78] | at least equal to that of papaverine |  |  |  | IC50 (guinea pig ileum; [3]): < 1e-06 M; IC50 (guinea pig ileum; [4]): < 1e-06 M |
| CCCCCCCCNC(C)C(OC(=O)CC1CCCCC1)c1ccc(SC(C)C)cc1 (stereo not shown) [Compound 37] |  | suitable antihypertensive activity |  |  |  |
| CCCC(=O)OC(c1ccc(SC(C)C)cc1)C(C)NCCCCc1ccccc1 (stereo not shown) [Compound 23] | at least equal to that of papaverine |  | < 1e-06 M | < 1e-06 M |  |
| CCCCCCCCNC(C)C(OC(=O)CC)c1ccc(SC2CCCCC2)cc1 (stereo not shown) [Compound 11] |  |  | < 1e-06 M | < 1e-06 M |  |
| CCCCCCCCNC(C)C(OC(=O)Cc1ccc(OC)cc1)c1ccc(SC(C)C)cc1 (stereo not shown) [Compound 35] |  | suitable antihypertensive activity |  |  |  |
| CCCCCCCCNC(C)C(OC(=O)C1CCCCC1)c1ccc(SC(C)C)cc1 (stereo not shown) [Compound 7] |  | suitable antihypertensive activity |  |  |  |
| CCCCCCCCNC(C)C(OC(=O)C1CCCC1)c1ccc(SC(C)C)cc1 (stereo not shown) [Compound 8] |  | suitable antihypertensive activity |  |  |  |
| CC(C)Oc1ccc(C(OC(=O)C2CCCCC2)C(C)NCCCCc2ccccc2)cc1 (stereo not shown) [Compound 20] | at least equal to that of papaverine | suitable antihypertensive activity | < 1e-06 M | < 1e-06 M |  |
| CCCCCCCCNC(C)C(OC(=O)CCCCC(=O)OC)c1ccc(SC(C)C)cc1 (stereo not shown) [Compound 31] |  |  | < 1e-06 M | < 1e-06 M |  |
| CCCCCCCCNC(C)C(OC(=O)C(C)C)c1ccc(SC(C)C)cc1 (stereo not shown) [Compound 4] | at least equal to that of papaverine |  | < 1e-06 M | < 1e-06 M |  |
| CC(=O)OC(c1ccc(SC(C)C)cc1)C(C)NCCOc1ccccc1 (stereo not shown) [Compound 25] |  | suitable antihypertensive activity |  |  |  |
